Reference: ChEMBL document CHEMBL6121041, “Design and synthesis of isatin derivative payloaded peptide-drug conjugate as tubulin inhibitor against colorectal cancer” (Eur J Med Chem, 2025)
pIC50: −log10 of the molar value.

What was measured:
[1] = Cytotoxicity against HUVEC cells assessed as reduction in cell viability incubated for 48 hrs by MTT assay; format: toxicity, cell-based; conditions: human
[2] = Cytotoxicity against HK-2 cells assessed as reduction in cell viability incubated for 48 hrs by MTT assay; format: toxicity, cell-based; conditions: human
[3] = test system: HCT-116; experiment: Antiproliferative activity against human HCT-116 cells assessed as reduction in cell viability incubated for 48 hrs by MTT assay; format: functional, cell-based; conditions: HCT-116, 48 h
[4] = test system: 786-0; experiment: Antiproliferative activity against human 786-0 cells assessed as reduction in cell viability incubated for 48 hrs by MTT assay; format: functional, cell-based; conditions: 786-0, 48 h
[5] = test system: HCC827; experiment: Antiproliferative activity against human HCC827 cells assessed as reduction in cell viability incubated for 48 hrs by MTT assay; format: functional, cell-based; conditions: HCC827, 48 h
[6] = test system: K562; experiment: Antiproliferative activity against human K562 cells assessed as reduction in cell viability incubated for 48 hrs by MTT assay; format: functional, cell-based; conditions: K562, 48 h
[7] = test system: MGC-803; experiment: Antiproliferative activity against human MGC-803 cells assessed as reduction in cell viability incubated for 48 hrs by MTT assay; format: functional, cell-based; conditions: MGC-803, 48 h
[8] = test system: HepG2; experiment: Antiproliferative activity against human HepG2 cells assessed as reduction in cell viability incubated for 48 hrs by MTT assay; format: functional, cell-based; conditions: HepG2, 48 h

| pIC50 [3] | pIC50 [4] | pIC50 [5] | pIC50 [6] | pIC50 [7] | pIC50 [8] | Structure (SMILES) | IC50 at 48 h [1] | IC50 at 48 h [2] |
| --- | --- | --- | --- | --- | --- | --- | --- | --- |
| 6.14 | 4.51 | 5.38 | 6.30 | 4.12 | 4.15 | COc1ccc(CN2C(=O)C(=O)c3cc(-c4ccc(SC)cc4)ccc32)cc1 | 25 µM | 13.4 µM |
| 5.80 | 3.86 | 4.92 | 5.68 | 4.06 | < 4.00 | COC(=O)c1ccc(-c2ccc3c(c2)C(=O)C(=O)N3Cc2ccc(OC)cc2)cc1 | 81.7 µM | 8.54 µM |
| 5.70 | 4.30 | 4.53 | 5.94 | < 4.00 | 5.17 | COc1ccc(CN2C(=O)C(=O)c3cc(-c4ccc(COC(C)=O)cc4)ccc32)cc1 | 34.7 µM | 9.02 µM |
